Broadly, the IC50 is the concentration that inhibits the measured activity by half. A low value points to higher potency. The term inhibition denotes the change of the read-out against control, counted positive when it falls.

Experimental findings from ChEMBL document CHEMBL5042529, “One-Pot Enzymatic Synthesis and Biological Evaluation of Ganglioside GM3 Derivatives as Potential Cancer Immunotherapeutics” (J Med Chem, 2022) are described below.

Each structure is given as a SMILES string. Active and inactive are the calls of the source. The rule behind the calls is not given here. Bounds are passed on as bounds.

Data set [1] is described as follows: Cytotoxicity against human HeLa cells measured after 24 hrs by MTT assay. Type of data set: toxicity, cell-based. For orientation: Formazan colour is commonly taken as a measure of viable cells.
Data set [2] can be described thus: Cytotoxicity against human A-431 cells measured after 24 hrs by MTT assay. Type of data set: toxicity, cell-based.
A short description of data set [3]: Cytotoxicity against rat PC-12 cells measured after 24 hrs by MTT assay. It counts as toxicity, cell-based.
Data set [4] can be described thus: Cytotoxicity against mouse Neuro2a cells measured after 24 hrs by MTT assay. It counts as toxicity, cell-based, N2a.
Data set [5] is described as follows: Cytotoxicity against CHO cells measured after 24 hrs by MTT assay. It counts as toxicity, cell-based, Cricetulus griseus. To be noted: Chinese hamster.
Data set [6] has as its system A-431. Nature of the data set: Antimigratory activity in human A-431 cells assessed as inhibition of scratch at 50 uM measured after 24 hrs by Wound healing assay. Type of data set: functional.
In data set [7] the test system is Mus musculus. Kind of data set: Effect on IL-2 expression in C57BL/6 mouse transfected with mouse B16-Luc cells assessed as serum IgG level at 5 mg/kg, ip qd treated for 7 days by ELISA. Type of data set: functional, organism-based. The note with it: time 7.0 day. In general terms: In an ELISA, binding on a coated surface is turned into a signal by an enzyme label.

Data set [8] concerns Mus musculus. Kind of data set: Effect on IL-2 expression in C57BL/6 mouse transfected with mouse B16-Luc cells assessed as serum IL-2 level at 5 mg/kg, ip qd treated for 7 days by ELISA. Type of data set: functional, organism-based. The note with it: time 7.0 day.
For data set [9], the system named is Mus musculus. Nature of the data set: Effect on IL-2 expression in C57BL/6 mouse transfected with mouse B16-Luc cells assessed as serum […] level at 5 mg/kg, ip qd treated for 7 days by ELISA. Type of data set: functional, organism-based. To be noted: time 7.0 day.
The test system of data set [10] is A-431. Kind of data set: Inhibition of cell invasion in human A-431 cells assessed as inhibition rate at 50 uM incubated for 24 hrs by crystal violet staining based transwell assay. It counts as functional.

Take `CCCCCCCCCCCCC/C=C/[C@@H](O)[C@H](CO[C@@H]1O[C@H](CO)[C@@H](O[C@@H]2O[C@H](CO)[C@H](O)[C@H](O[C@]3(C(=O)O)C[C@H](O)[C@@H](NC(C)=O)[C@H]([C@H](O)[C@H](O)CO)O3)[C@H]2O)[C@H](O)[C@H]1O)NC(=O)CCCCCCCCCC`: the IC50 at 24 h in data set [1], in data set [2], in [3], in data set [4] and in data set [5] was greater than 200 µM each time.
Take `CCCCCCCCCCCCC/C=C/[C@@H](O)[C@H](CO[C@@H]1O[C@H](CO)[C@@H](O[C@@H]2O[C@H](CO)[C@H](O)[C@H](O[C@]3(C(=O)O)C[C@H](O)[C@@H](NC(=O)c4cc(C)cc(C)c4)[C@H]([C@H](O)[C@H](O)CO)O3)[C@H]2O)[C@H](O)[C@H]1O)NC(=O)CCCCCCCCCCCCCCCCC`: the IC50 at 24 h in data set [1], in [2], in [3], in data set [4] and in data set [5] was greater than 200 µM in each case.
For the compound `CCCCCCCCCCCCC/C=C/[C@@H](O)[C@H](CO[C@@H]1O[C@H](CO)[C@@H](O[C@@H]2O[C@H](CO)[C@H](O)[C@H](O[C@]3(C(=O)O)C[C@H](O)[C@@H](NC(=O)c4cccc(Br)c4)[C@H]([C@H](O)[C@H](O)CO)O3)[C@H]2O)[C@H](O)[C@H]1O)NC(=O)CCCCCCCCCCCCCCCCC`, the IC50 at 24 h in data set [1], in [2], in data set [3], in data set [4] and in data set [5] was greater than 200 µM each time.
For `CCCCCCCCCCCCC/C=C/[C@@H](O)[C@H](CO[C@@H]1O[C@H](CO)[C@@H](O[C@@H]2O[C@H](CO)[C@H](O)[C@H](O[C@]3(C(=O)O)C[C@H](O)[C@@H](NC(=O)c4cccc([N+](=O)[O-])c4)[C@H]([C@H](O)[C@H](O)CO)O3)[C@H]2O)[C@H](O)[C@H]1O)NC(=O)CCCCCCCCCCCCCCCCC`, the IC50 at 24 h in [1], in data set [2], in data set [3], in [4] and in data set [5] was greater than 200 µM throughout.
As for `CCCCCCCCCCCCC/C=C/[C@@H](O)[C@H](CO[C@@H]1O[C@H](CO)[C@@H](O[C@@H]2O[C@H](CO)[C@H](O)[C@H](O[C@]3(C(=O)O)C[C@H](O)[C@@H](NC(=O)c4ccc(I)cc4)[C@H]([C@H](O)[C@H](O)CO)O3)[C@H]2O)[C@H](O)[C@H]1O)NC(=O)CCCCCCCCCCCCCCCCC`, the 50% inhibitory concentration (IC50) at 24 h in data set [1], in data set [2], in data set [3], in data set [4] and in [5] was greater than 200 µM each time.
With `CCCCCCCCCCCCC/C=C/[C@@H](O)[C@H](CO[C@@H]1O[C@H](CO)[C@@H](O[C@@H]2O[C@H](CO)[C@H](O)[C@H](O[C@]3(C(=O)O)C[C@H](O)[C@@H](NC(=O)c4ccc(C=O)cc4)[C@H]([C@H](O)[C@H](O)CO)O3)[C@H]2O)[C@H](O)[C@H]1O)NC(=O)CCCCCCCCCCCCCCCCC`, the IC50 at 24 h in data set [1], in [2], in data set [3], in data set [4] and in data set [5] was greater than 200 µM throughout. Also, in the data set with A-431 [6], the outcome was Active.
Regarding `CCCCCCCCCCCCC/C=C/[C@@H](O)[C@H](CO[C@@H]1O[C@H](CO)[C@@H](O[C@@H]2O[C@H](CO)[C@H](O)[C@H](O[C@]3(C(=O)O)C[C@H](O)[C@@H](NC(=O)c4ccc(F)cc4)[C@H]([C@H](O)[C@H](O)CO)O3)[C@H]2O)[C@H](O)[C@H]1O)NC(=O)CCCCCCCCCCCCCCCCC`, the IC50 at 24 h in data set [1], in [2], in data set [3], in data set [4] and in [5] was greater than 200 µM throughout.
Turning to `CCCCCCCCCCCCC/C=C/[C@@H](O)[C@H](CO[C@@H]1O[C@H](CO)[C@@H](O[C@@H]2O[C@H](CO)[C@H](O)[C@H](O[C@]3(C(=O)O)C[C@H](O)[C@@H](NC(C)=O)[C@H]([C@H](O)[C@H](O)CO)O3)[C@H]2O)[C@H](O)[C@H]1O)NC(=O)CCCCCCCCCCCCCCCCC`, the result in the data set on Mus musculus [7], in the data set on Mus musculus [8] and in the data set on Mus musculus [9] was inactive.
As to `CCCCCCCCCCCCC/C=C/[C@@H](O)[C@H](CO[C@@H]1O[C@H](CO)[C@@H](O[C@@H]2O[C@H](CO)[C@H](O)[C@H](O[C@]3(C(=O)O)C[C@H](O)[C@@H](NC(=O)c4ccccc4)[C@H]([C@H](O)[C@H](O)CO)O3)[C@H]2O)[C@H](O)[C@H]1O)NC(=O)CCCCCCCCCCCCCCCCC`, the IC50 at 24 h in data set [1], in data set [2], in data set [3], in [4] and in data set [5] was greater than 200 µM throughout.
Turning to `CCCCCCCCCCCCC/C=C/[C@@H](O)[C@H](CO[C@@H]1O[C@H](CO)[C@@H](O[C@@H]2O[C@H](CO)[C@H](O)[C@H](O[C@]3(C(=O)O)C[C@H](O)[C@@H](NC(=O)c4cc(F)cc(F)c4)[C@H]([C@H](O)[C@H](O)CO)O3)[C@H]2O)[C@H](O)[C@H]1O)NC(=O)CCCCCCCCCCCCCCCCC`, the IC50 at 24 h in [1], in [2], in [3], in [4] and in [5] was greater than 200 µM throughout.
With `CCCCCCCCCCCCC/C=C/[C@@H](O)[C@H](CO[C@@H]1O[C@H](CO)[C@@H](O[C@@H]2O[C@H](CO)[C@H](O)[C@H](O[C@]3(C(=O)O)C[C@H](O)[C@@H](NC(=O)Cc4ccc(C)cc4)[C@H]([C@H](O)[C@H](O)CO)O3)[C@H]2O)[C@H](O)[C@H]1O)NC(=O)CCCCCCCCCCCCCCCCC`, the IC50 at 24 h in data set [1], in data set [2], in data set [3], in [4] and in [5] was greater than 200 µM each time.
Turning to `CCCCCCCCCCCCC/C=C/[C@@H](O)[C@H](CO[C@@H]1O[C@H](CO)[C@@H](O[C@@H]2O[C@H](CO)[C@H](O)[C@H](O[C@]3(C(=O)O)C[C@H](O)[C@@H](NC(=O)c4ccncc4)[C@H]([C@H](O)[C@H](O)CO)O3)[C@H]2O)[C@H](O)[C@H]1O)NC(=O)CCCCCCCCCCCCCCCCC`, the IC50 at 24 h in data set [1], in data set [2], in data set [3], in data set [4] and in [5] was greater than 200 µM in each case. Further, the inhibition at 50 µM with A-431 [10] is 26.2%. The result in the data set on A-431 [6] was Active.
Consider `CCCCCCCCCCCCC/C=C/[C@@H](O)[C@H](CO[C@@H]1O[C@H](CO)[C@@H](O[C@@H]2O[C@H](CO)[C@H](O)[C@H](O[C@]3(C(=O)O)C[C@H](O)[C@@H](NC(=O)c4cccc(F)c4)[C@H]([C@H](O)[C@H](O)CO)O3)[C@H]2O)[C@H](O)[C@H]1O)NC(=O)CCCCCCCCCCCCCCCCC`, for which the IC50 at 24 h in data set [1], in data set [2], in data set [3], in data set [4] and in data set [5] was greater than 200 µM in each case. In addition, the inhibition at 50 µM in the data set on A-431 [10] was found to be 27.8%. Moreover, the outcome in the data set on A-431 [6] was Active.
As for `CCCCCCCCCCCCC/C=C/[C@@H](O)[C@H](CO[C@@H]1O[C@H](CO)[C@@H](O[C@@H]2O[C@H](CO)[C@H](O)[C@H](O[C@]3(C(=O)O)C[C@H](O)[C@@H](NC(=O)CC)[C@H]([C@H](O)[C@H](O)CO)O3)[C@H]2O)[C@H](O)[C@H]1O)NC(=O)CCCCCCCCCCCCCCCCC`, the IC50 at 24 h in [1], in data set [2], in [3], in data set [4] and in data set [5] was greater than 200 µM in each case.
